The source of these data is patent publication US20170051149A1, “AZOARYLS AS REVERSIBLY MODULATABLE TUBULIN INHIBITORS” (ECOLE NORMALE SUPERIEURE DE LYON, priority 2014, published 2017).

The nature of data set [1]: UV-Vis absorption spectra of trans and cis isomers (λstrong, εE, λiso). The class given is physicochemical. Particulars: PBS pH = 7.4, 20% MeCN. As for the experimental part:
A(λmeas, λirrad) is used to indicate the measured UV-Vis absorption spectrum in the range 340 nm<λmeas<650 nm, as a function of the irradiating wavelength λirrad once PSS(λirrad) has been established. UV-Vis measurement of A(λmeas, λirrad) was performed. It was considered that the PSS had been established when the absorbance profile ceased to alter under continued irradiation. An isosbestic point (wavelength λiso) was found for each compound by examining where the absorption A(λmeas) was invariant with respect to changing λirrad. A(λmeas, dark) was also acquired with samples that had been kept in the dark for at least several hours, and it was assumed that no significant spectral contribution from the cis isomer was present in these spectra. […]
HPLC (high-performance liquid chromatography) was then used as described in Part A to measure ε*E(λ) and ε*Z(λ) (the separated absorption profiles of trans and cis isomers respectively, in arbitrary units which are not intercomparable in an absolute sense). It was approximated that these spectra would be identical in shape if measured under the UV-Vis conditions, so once ε*E(λ) and ε*Z(λ) were scaled appropriately relative to each other, these scaled spectra could be used to deconvolute A(λmeas, λirrad). This approximation was considered useful especially in the regions of greatest spectral interest, ie. regions of relatively strong absorption (since only rather well-absorbed wavelengths will allow significant photoisomerisation under finite photon flux). To place the arbitrary-unit absorption spectra on an absolute scale, the maximal absorption wavelength λstrong of the trans-isomer was first selected by examining A(λmeas, dark): typically, λstrong≈380 nm. with Expressing A(λstrong, dark) in units M^−1cm^−1, ε*E(λstrong) was then scaled so that εE(λstrong)=A(λstrong, dark), giving:
εE(λ)=ε*E(λ)×[A(λstrong,dark)/ε*E(λstrong)]
and the isosbestic point was used to scale the cis-isomer spectrum as per:
εZ(λ)=ε*Z(λ)×[εE(λiso)/ε*Z(λiso)]
However, using A(λstrong, dark) was preferred, since A(λiso) was typically so much smaller that the standard deviation in the scaled absorptivities which it generated was far greater.
Absorption spectra in cuvette (“UV-Vis”) were acquired on a Varian CaryScan 50 (1 cm, 100 μL or 1 mL volume) with Peltier cell temperature control unit maintained at 37° C., in PBS at pH˜7.4 containing a low percentage of cosolvent if needed (typically 2% MeCN or 5% DMSO). A ThorLabs Polychrome V monochromator with a fibre optic cable output directed into the cuvette was used to perform photoisomerisation studies by UV-Vis spectrophotometry although single LEDs of approximately 10-20 mW output, 15-20° cone angle, and 10-15 nm bandwidth FWHM, obtained commercially from Roithner Lasertechnik GmbH, were equally successful in providing repeatable monochromatic photoisomerisation. Separated spectra of trans and […] forms were acquired from the inline Diode Array Detector on the AGILENT 1260 SL coupled LC-MS system after HPLC separation. Fluorescence spectrophotometry (excitation and emission spectra) were acquired on a Varian CaryEclipse fluorescence spectrophotometer.
By the above procedure, the trans- and cis-isomers of each species were separated by HPLC as described in Part A, and ε*E(λ) and ε*Z(λ) were measured on the inline ultraviolet/visible Diode Array Detector; these were then scaled as outlined above. The parameters λstrong, εE(λstrong) and λiso are tabulated for selected compounds below (Table 1).

A short description of data set [2]: thermal reversion halflife of spontaneous cis->trans isomerisation. The format is physicochemical. The following applies: PBS pH = 7.4, 20% MeCN. From the text:
Finally, trends in τ were ascertained by establishing the PSS at λstrong, then turning off the light source at time t0, and measuring A(λstrong, t) over time. Data were acquired for half an hour, or else the first three halflives (whichever was the shorter period), then fitted to the equation:
A(λstrong,t)=A(λstrong,dark)−[A(λstrong,dark)−A(λstrong,t0)]×e^−kt
This fit was used to return an in vitro halflife τ* for the cis->trans spontaneous thermal reversion isomerisation process, defined as τ=ln 2/k. It should be noted however, that azoaryl compounds' thermal reversion rates are known to depend strongly upon their microenvironment, such as pH and solvent/solvation effects^[7,38]. This was shown for compound (I.1), where a change of only 1.4 pH units gave a 25% change in τ*; note that different compounds are expected to respond very differently to changes in pH so no unifying trends are expected. Therefore the τ* acquired in vitro were considered appropriate only for qualitative intercomparison between samples (trend of τ* vs structure), rather than quantitative prediction of the τ values which might be experienced in cellulo or in vivo. Indeed, these in vitro τ* values appeared at least three times longer than what would have been expected based on in cellulo experiments where the pause time between activating pulses was varied.
Thermal reversion times were measured as described above. Those for selected compounds are presented below (Table 2).

Another data set relates to HeLa cells. Description: cytotoxicity by crystal violet staining. The format is cell-based. The following applies: 40 h. The method, then:
Seven of the compounds according to the invention were selected for biological tests. Their cytotoxicity was assessed using crystal violet staining as adapted from standard procedure^[31]. Briefly, HeLa cells were seeded on 96-well plates, treated with the given concentrations of the selected compound, and exposed or not to the pulse protocol of illumination with light at 390 nm (pulses of 75 ms every 15 s). After 40 h cells were stained with crystal violet solution (0.5% crystal violet in 20% methanol) for 10 min. Unbound crystal violet was removed by rinsing with distilled water and cells were air-dried. Crystal violet was subsequently eluted from cells with 0.1 M sodium citrate in 50% ethanol. The absorbance of crystal violet is proportional to the cell number and was determined at 590 nm with a FLUOstar Omega microplate reader (BMG Labtech).
Each compound was tested at 6 doses: 100 nM, 500 nM, 1 μM, 2 μM, 5 μM and 10 μM. In order to ensure their solubility in the cell culture media, DMSO was used as a co-solvent, and to provide comparability between all samples the volume of DMSO was adjusted to obtain its final concentration as 1% in the cell culture media for all the compounds at all concentrations tested.
Results presented in Table 4 below are expressed as a fold growth relative to the control growth of the cells treated only with a co-solvent (1% DMSO), and are represented as a mean value from triplicates coming from a representative experiment.

The mark [3] stands for this setting: 100 nM, 390 nm (75 ms every 15 s).
Where [4] appears, read: 500 nM, 390 nm (75 ms every 15 s).
[5] abbreviates: 1 μM, 390 nm (75 ms every 15 s).
Where [6] appears, read: 2 μM, 390 nm (75 ms every 15 s).
The mark [7] stands for this setting: 5 μM, 390 nm (75 ms every 15 s).
Where [8] appears, read: 10 μM, 390 nm (75 ms every 15 s).

Molecules are shown by their SMILES. Structures can show the parent of a compound that is named as a salt.

As for `COc1ccc(N=Nc2cc(OC)c(OC)c(OC)c2)c(F)c1F` [I.5, 1-(2,3-difluoro-4-methoxyphenyl)-2-(3,4,5-trimethoxyphenyl)diazene], in data set [1], the “εE(λstrong)” value was determined as 19578 M⁻¹ cm⁻¹, the λiso was 450 nm and the λstrong was 365 nm. Besides, the “τ, reversion time” value in data set [2] is on record as 134 min.
The like results for `COc1cc(N=Nc2ccc(OC)c([N+](=O)[O-])c2F)cc(OC)c1OC` [I.7, 1-(2-fluoro-4-methoxy-3-nitrophenyl)-2-(3,4,5-trimethoxyphenyl)diazene] were, in that order, 13600 M⁻¹ cm⁻¹, 455 nm, 365 nm and 50 min.
On the same counts, the results for `COc1ccc(N=Nc2cc(F)c(OC)c(F)c2)cc1` [I.9, 1-(3,5-difluoro-4-methoxyphenyl)-2-(4-methoxyphenyl)diazene] are 11400 M⁻¹ cm⁻¹, 430 nm, 355 nm and 116 min.
Regarding `COc1ccc(N=Nc2cc(OC)c(OC)c(OC)c2)cc1OC(=O)N1CCCCC1CNC(=O)[C@@H](N)CC(C)C` (stereo partly drawn) [I.10, (2-methoxy 5-((3,4,5-trimethoxyphenyl)diazenyl)phenyl) 2-((L-leucinamido)methyl)piperidine 1-carboxylate 2,2,2-trifluoroacetate salt], the mean fold growth with HeLa cells (setting [3]) is listed as 0.986 fold; in the data set on HeLa cells (100 nM, Dark) it was 0.95 fold; with HeLa cells (setting [4]) it was 0.945 fold; in the data set on HeLa cells (500 nM, Dark), 0.99 fold; with HeLa cells (setting [5]), 0.387 fold; with HeLa cells (1 μM, Dark), 0.92 fold. The mean fold growth with HeLa cells (setting [6]) is recorded as 0.357 fold; with HeLa cells (2 μM, Dark), 0.90 fold; in the data set on HeLa cells (setting [7]) it was 0.217 fold; with HeLa cells (5 μM, Dark) it was 0.99 fold; with HeLa cells (setting [8]), 0.293 fold; with HeLa cells (10 μM, Dark), 0.78 fold.
`COc1ccc(N=Nc2cc(OC)c(OC)c(OC)c2)cc1OC` [I.11, 1-(3,4-dimethoxyphenyl)-2-(3,4,5-trimethoxyphenyl)diazene]: in data set [1], the “εE(λstrong)” value is 18163 M⁻¹ cm⁻¹, the λiso is 460 nm and the λstrong came to 375 nm. Moreover, in data set [2], the “τ, reversion time” value was found to be 40 min.
The like results for `COc1ccc(N=Nc2cc(OC)c(OC)c(OC)c2)c(OC)c1` [I.12, 1-(2,4-dimethoxyphenyl)-2-(3,4,5-trimethoxyphenyl)diazene] were, in that order, 12400 M⁻¹ cm⁻¹, 485 nm, 380 nm and 28 min.
On the same counts, the results for `COc1ccc(N=Nc2cc(OC)c(OC)c(OC)c2)cn1` [I.13, 2-methoxy-5-((3,4,5-trimethoxyphenyl)diazenyl)pyridine] are 14200 M⁻¹ cm⁻¹, 440 nm, 355 nm and 270 min.
The like results for `COc1cc(N=Nc2ccc(OC)c3ncccc23)cc(OC)c1OC` [I.14, 8-methoxy-5-((3,4,5-trimethoxyphenyl)diazenyl)quinoline] were, in that order, 18000 M⁻¹ cm⁻¹, 485 nm, 390 nm and 3.3 min.
Regarding `COc1ccc(N=Nc2cc(OC)c(OC)c(OC)c2)cc1NC(=O)[C@@H](N)CO` [I.20, (2-methoxy 5-((3,4,5-trimethoxyphenyl)diazenyl)phenyl)) 1-L-serinamide 2,2,2-trifluoroacetate salt], the mean fold growth in the data set with HeLa cells (setting [3]) came to 1.09 fold; in the data set with HeLa cells (100 nM, Dark), 0.99 fold; with HeLa cells (setting [4]), 1.10 fold; in the data set on HeLa cells (500 nM, Dark), 1.11 fold; in the data set with HeLa cells (setting [5]), 1.00 fold; in the data set on HeLa cells (1 μM, Dark), 1.12 fold. The mean fold growth with HeLa cells (setting [6]) stood at 0.96 fold; in the data set with HeLa cells (2 μM, Dark) it was 1.10 fold; with HeLa cells (setting [7]), 0.68 fold; with HeLa cells (5 μM, Dark) it was 1.03 fold; with HeLa cells (setting [8]), 0.51 fold; in the data set with HeLa cells (10 μM, Dark), 1.01 fold.
On to `COc1ccc(N=Nc2cc(OC)c(OC)c(OC)c2)c(NC(C)=O)c1` [I.26, N-(5-methoxy-2-((3,4,5-trimethoxyphenyl)diazenyl)phenyl)acetamide], for which, in data set [1], the “εE(λstrong)” value is 16300 M⁻¹ cm⁻¹, the λiso turned out to be 475 nm and the λstrong is recorded as 380 nm. In addition, the “τ, reversion time” value in data set [2] stood at 8.4 min.
The like results for `COc1ccc(N=Nc2cc(OC)c(OC)c(OC)c2)cc1Br` [I.27, 1-(3-bromo-4-methoxyphenyl)-2-(3,4,5-trimethoxyphenyl)diazene] were, in that order, 19540 M⁻¹ cm⁻¹, 445 nm, 365 nm and 129 min.
As to `COc1ccc(N=Nc2cc(OC)c(OC)c(OC)c2)cc1C=O` [I.28, 2-methoxy-5-((3,4,5-trimethoxyphenyl)diazenyl)benzaldehyde], in data set [1], the “εE(λstrong)” value stood at 17813 M⁻¹ cm⁻¹, the λiso was determined as 452 nm and the λstrong came to 360 nm. The “τ, reversion time” value in data set [2] turned out to be 248 min.
On the same counts, the results for `COc1ccc(N=Nc2cc(OC)c(OC)c(OC)c2)cc1C(=O)O` [I.29, 2-methoxy-5-((3,4,5-trimethoxyphenyl)diazenyl)benzoic acid] are 20102 M⁻¹ cm⁻¹, 447 nm, 365 nm and 104 min.
